Where “and” joins values, the source holds several entries; their conditions need not be identical. Equal entries are not always repeated.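 Step 1: Grow cells in 96-well plates. Step 2: Expose to compound for 48 hours at 5 concentrations. Step 3: Interpolate endpoints linearly; if unreached, use highest concentration. GI50 = concentration required for 50% inhibition of growth. The concentration for full growth arrest is given as TGI.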
Tested on: MDA-MB-468 breast
Assay: DTP human tumour cell line panel, 48 h

## O=C1Nc2cc(Cl)ccc2Oc2cc(Oc3ccccc3)ccc21
  GI50: 1850 nM
  TGI: 8880 nM

## COc1cc(C(=O)NC2CCN(C)CC2)ccc1Nc1ncc2c(n1)N(C1CCCC1)CC(F)(F)C(=O)N2C
  GI50: < 10 nM
  TGI: < 42.7 nM

## COc1cc(-c2cc(/C=C/C(=O)c3ccc4c(c3)OCO4)[nH]n2)cc(OC)c1OC
  GI50: 1400 nM
  TGI: 2860 nM

## C(=N/Nc1ncnc2nc[nH]c12)/c1ccccn1
  GI50: 86.8 nM
  TGI: 441 nM

## O=C(CCCCC(=O)N/N=C\c1ccccc1Cl)N/N=C\c1ccccc1Cl
  GI50: 1830 nM
  TGI: 49500 nM

## O=C(Nc1ncc(Cc2ccccc2)s1)c1ccc2c(c1)OCCO2
  GI50: 254 nM

## C=C1C(=O)O[C@H]2[C@H]1CC/C(C=Nc1ccc(C(F)(F)F)cc1N)=C\CC[C@@]1(C)O[C@@H]21
  GI50: 3490 nM
  TGI: 12600 nM

## Cc1ccc(Cl)cc1Nc1nc(C(F)(F)F)ccc1C(=O)N/N=C/c1c(Cl)cccc1Cl
  GI50: 662 nM
  TGI: 8470 nM

## COc1ccc(-n2c(SCC(=O)Nc3ccc(-c4nc5ccccc5[nH]4)cc3)nc3ccccc3c2=O)cc1
  GI50: 1970 nM
  TGI: 4630 nM

## Fc1ccc(-c2ncn(C3CCNCC3)c2-c2ccnc(Oc3ccccc3)n2)cc1
  GI50: 3690 nM
  TGI: 12200 nM

## CN(C)c1ccc(/C=C(\C#N)c2cc3ccccc3n2C)cc1
  GI50: 69.4 nM
  TGI: 2110 nM

## Nc1ncnc2c1c(-c1cccc(OCc3ccccc3)c1)cn2C1CC(CN2CCCC2)C1 (centres undefined)
  GI50: 1380 nM
  TGI: 3140 nM

## Fc1ccc(CNc2c3ccccc3nc3ccccc23)cc1
  GI50: 1910 nM
  TGI: 4860 nM

## C=C1C(=O)O[C@H]2[C@H]1CC/C(COC(=O)/C=C\C(=O)NCc1ccc(Cn3c(=O)sn(-c4ccc(OC)cc4)c3=O)cc1)=C\CC[C@@]1(C)O[C@@H]21
  GI50: 652 nM
  TGI: 1520 nM

## C#CC[C@@H]1C[C@]2(C)[C@H]3CC[C@@H]4[C@H]5[C@H](C(=C)C)CC[C@]5(C(=O)O)CC[C@@]4(C)[C@]3(C)CC[C@H]2C(C)(C)[C@H]1O
  GI50: 2210 nM
  TGI: 5290 nM

## CCCn1cc(C2=C(c3cn(C)c4ccccc34)C(=O)NC2=O)c2ccccc21
  GI50: 429 nM
  TGI: 11100 nM

## CCOC(=O)C1=C(N)Oc2c(sc3c(C)cccc23)C1c1ccc(Cl)cc1 (centres undefined)
  GI50: 3110 nM
  TGI: 13400 nM

## COc1ccccc1CNCCCN1C(=O)c2ccc3c4c(ccc(c24)C1=O)C(=O)N(CCCNCCCCNCCCCN)C3=O
  GI50: 280 nM
  TGI: 1170 nM

## CCCN(CCC)c1ccc(C=O)cc1
  GI50: 16400 nM
  TGI: 53900 nM

## CCCCCCCCCCCC1=NC(C)(C)CN1CCO
  GI50: 3270 nM
  TGI: 12800 nM

## COc1ccc(C(=O)Nc2ncc(Cc3ccccc3Cl)s2)cc1
  GI50: 353 nM
  TGI: 33000 nM

## O=C(CSc1nc2ccc([N+](=O)[O-])cc2[nH]1)Nc1cccc(Cl)c1
  GI50: 1590 nM
  TGI: 5890 nM

## O=C(CCc1nnc(-c2c(Cl)cccc2Cl)o1)c1nc2ccccc2[nH]1
  GI50: 797 nM
  TGI: 12200 nM

## CC(C)c1ccc2c(N=Nc3ccc(S(N)(=O)=O)cc3)c(O)[nH]c2c1
  GI50: 7760 nM
  TGI: > 25000 nM

## O=C(/C=C/c1ccccn1)c1ccccc1O
  GI50: 1610 nM
  TGI: 3100 nM

## CS(=O)(=O)N1CCN(Cc2cc3nc(-c4cccc5[nH]ncc45)nc(N4CCOCC4)c3s2)CC1
  GI50: 55.3 nM and 123 nM
  TGI: 467 nM and 985 nM

## N/C(=N\c1nc2c(Cl)cc(Cl)cc2s1)C(Cl)(Cl)Cl
  GI50: 2850 nM
  TGI: 12300 nM

## CCOCCc1c(O)nc(SC)[nH]c1=O
  GI50: > 100000 nM
  TGI: > 100000 nM

## COc1ccc(Nc2c3c4c(cccc4[nH]c2=O)C(=O)c2ccccc2-3)cc1
  GI50: 23.7 nM

## O=C(c1ccccc1)c1ccc(Cl)c([N+](=O)[O-])c1
  GI50: 2160 nM
  TGI: 6460 nM

## COC1OCC(OS(=O)(=O)c2ccc(C)cc2)C(OC(=O)c2ccccc2)C1OC(=O)c1ccccc1 (centres undefined)
  GI50: 2500 nM
  TGI: > 100000 nM

## Nc1ccccc1/C=N\Nc1ccccc1
  GI50: 79700 nM
  TGI: > 100000 nM

## O=C1[C@H]2Cc3c([nH]c4ccccc34)[C@@H](c3ccc(Br)cc3)N2C(=O)CN1C1CCN(CC2CCCCC2)CC1
  GI50: 13200 nM
  TGI: 27200 nM

## CCOC(=O)c1ccc2c(c1)[n+](=O)c(C(=O)c1ccc3ccccc3c1)c(C(F)(F)F)n2[O-]
  GI50: 372 nM
  TGI: 1510 nM

## CCc1ccc(CCC(=O)Nc2ncc(Cc3cc(Cl)ccc3Cl)s2)o1
  GI50: 769 nM
  TGI: 5970 nM

## Cn1cc(C2=C(c3c4n(c5ccccc35)CC(CN)C4)C(=O)NC2=O)c2ccccc21 (centres undefined)
  GI50: 2790 nM
  TGI: 6170 nM

## O=C1Nc2ccccc2C1(c1ccc(O)c(F)c1)c1ccc(O)c(F)c1
  GI50: 290 nM
  TGI: 996 nM

## CC(C)(C)C(=O)OCOP(=O)(OCOC(=O)C(C)(C)C)C1CCCN(OC(=O)c2ccccc2)C1=O (centres undefined)
  GI50: 1860 nM
  TGI: 14100 nM

Reference: PubChem BioAssay (NCI)
